Measurements from patent US20120294886A1, “PEPTIDE CONJUGATES FOR SUPPRESSING AN IMMUNE RESPONSE, METHODS OF MAKING AND USES THEREFOR” (The University of Queensland, priority 2011, published 2012).

Legend:
SJL/J mice [1] = assay: Induction of EAE by immunisation with peptide in complete Freund's adjuvant (Example 2); assay type: in vivo, mouse; conditions: for Day of Onset / Incidence: EAE; for Day of Onset / Incidence / Score: mice immunised with the peptide in CFA; for Incidence: followed for 6 weeks; for Score: clinical score of EAE; for Duration: duration of the first episode of disease
Method: In examples 2 and 4-8, PLP encephalitogenic epitopes were injected into SJL/J mice to induce EAE, so the mice could be used as an animal model for MS. Such a model has been used in numerous studies, including where preventative or treatment methods for MS are being investigated. The study described in Hofstetter et al., 2007, for example, describes the induction of EAE in SJL mice at pages 1373-1374.
Mice were immunised with the above non-palmitoylated, S-palmitoylated or N-palmitoylated peptides in complete Freund's adjuvant to induce EAE.
(1) Mice were followed for 6 weeks to determine the induction of EAE.

lymph node cells (LNC) = assay: CD4/CD8 ratio of activated LNC by flow cytometry (Example 2); assay type: cell-based, mouse; conditions: activated LNC from immunised mice, 4 per group
Method: Lymph nodes from a different group of mice immunised in the same manner were removed 10 days after injection of the peptides and single cell suspensions of lymph node cells (LNC) were prepared.
(3) Other LNC were incubated with antibodies against CD4 or CD8, and the ratio of CD4 to CD8 was determined using flow cytometric techniques. LNC were centrifuged through a Ficoll gradient and washed with PBS containing 1% FCS and 0.01% sodium azide (wash buffer). Aliquots of 1 million cells were incubated with antibodies specific for CD4 (clone RM4-5; rat IgG2a) or CD8a (clone 53-6.7; rat IgG2a) together with an antibody specific for the TCR β-chain (H57-597; hamster IgG) for 30 min at 4° C. in the dark, followed by FITC-conjugate anti-rat κ-chain or PE-conjugated anti-hamster IgG for 30 min at 4° C. in the dark. Isotype-matched primary antibodies were used as controls. All antibodies were purchased from PharMingen (San Diego, Calif.) and were used at 1 μg/ml dilution in wash buffer. After washing, cells were resuspended in wash buffer and analysed using a FACSCalibur flow cytometer (Becton Dickinson, Franklin Lakes, N.J.).

SJL/J mouse [2] = assay: EAE induction by W144, co-immunisation with Q144 or S-palm Q144 (Example 4); assay type: in vivo
Method: (§1) One mg per mL of W144 peptide, either alone or together with Q144 peptide or S-palm Q144 peptide at different molar ratios, was emulsified in an equal volume of complete Freund's adjuvant containing an additional 4 mg/ml Mycobacterium tuberculosis H37Ra. 200 μl of the emulsion (i.e. 100 μg W144) was then injected subcutaneously in a single site on the back of each SJL/J mouse. Each mouse also received 300 ng pertussis toxin intravenously on the same day as the peptide emulsion and then 3 days later.
(§2) The mice were inspected and weighed daily and scored for disease using a 5 point severity scale: 0=no disease; 1=decreased tail tone; 2=no tail tone; 3=hind limb weakness; 4=hind limb paralysis; 5=moribund.

SJL/J mouse [3] = assay: EAE induction by F188, co-immunisation with A188 or S-palm A188 (Example 5); assay type: in vivo
Method: as §1, with “F188” for “W144”, “A188” for “Q144”, “F188)” for “W144)”
as §2

SJL/J mice [4] = assay: Therapeutic treatment of established S-palm-PLP178-191-induced EAE (Example 7); assay type: in vivo, mouse; conditions: 100 μL of 1 mg/mL in PBS s.c. at score 2.0 or 2.5, followed for 7 days, versus PBS, FIG. 6
Method: SJL/J mice were injected subcutaneously with 100 μg S-palm-F188 (S-palm-PLP178-191), i.e. 100 μl of a 1 mg/ml solution emulsified in an equal volume (i.e. 100 μl Complete Freund's Adjuvant containing an extra 4 mg/mL Mycobacterium tuberculosis H37Ra. Each mouse also received 300 ng pertussis toxin intravenously on the same day as the peptide emulsion and then 3 days later.
The mice were then inspected and scored for disease using a 5 point severity scale: 0=no disease; 1=decreased tail tone; 2=no tail tone; 3=hind limb weakness; 4=hind limb paralysis; 5=moribund.
When the mice reached a score between 2.0 or 2.5, each mouse was injected subcutaneously with 100 μL PBS (n=6), 100 μL of 1 mg/mL A188 in PBS (n=6), or 100 μL of 1 mg/mL S-palm-A188 in PBS (n=7).
Mice were then followed for 7 days, and scored each day.

endosomes = assay: Colocalisation of peptide with endosomes in macrophages, confocal microscopy (Example 3); assay type: cell-based, mouse; conditions: FIG. 3
Method: (§3) For confocal microscopy, macrophages were isolated from normal 8-12-wk old female SJL/J mice peritoneal cell suspensions by adhesion to glass coverslips. The macrophages were then incubated with 100 μM peptide for between 1 min and 24 h at 37° C., the peptide being one of:
(§4) After incubation, cells were fixed with 4% formaldehyde in PBS for 15 min at room temperature and permeabilised with 0.05% digitonin in PBS for 5 min at room temperature or 0.2% Triton X-100 in PBS for 20 min at room temperature.
(§5) The cells were then incubated with murine antibodies against endosomes, lysosomes, endoplasmic reticulum, or MHC class I or II molecules for 1-3 hours at 37° C. After three washes in PBS, cells were incubated with streptavidin-Alexa 488 (1/400 dilution in PBS) or streptavidin-Cy3 (1/450 dilution in PBS) (both from Molecular Probes) and Texas Red-labeled rabbit anti-mouse IgG or IgM for 30 min in the dark at room temperature. After washing with PBS, coverslips were mounted in Aquapolymount medium. Immunofluorescence staining was monitored with a laser scanning microscope (LSM 510; Carl Zeiss Laboratories) equipped with a Plan-Apochromat 63× oil DIC immersion lens (numerical aperture 1.4). […] Quantification of colocalisation was performed on cells from 10 to 12 fields (at least 100 cells) with the colocalisation module of the Zeiss LSM Image Browser software.

lysosomes = assay: Colocalisation of peptide with lysosomes in macrophages, confocal microscopy (Example 3); assay type: cell-based, mouse; conditions: FIG. 3
Method: as §3, §4, §5

[5] = system: endoplasmic reticulum (ER); assay: Colocalisation of peptide with endoplasmic reticulum in macrophages, confocal microscopy (Example 3); assay type: cell-based, mouse; conditions: 30 or 60 minutes incubation, FIG. 4
Method: as §3, §4, §5

MHC class I molecules = assay: Colocalisation of peptide with MHC class I in macrophages, confocal microscopy (Example 3); assay type: cell-based, mouse; conditions: FIG. 5
Method: as §3, §4, §5

MHC class II molecules = assay: Colocalisation of peptide with MHC class II in macrophages, confocal microscopy (Example 3); assay type: cell-based, mouse; conditions: FIG. 5
Method: as §3, §4, §5

[6] = EAE, 100 μg W144 alone in CFA s.c.

Row | Substance | Day of Onset (SJL/J mice [1]) | Incidence (SJL/J mice [1]) | Score (SJL/J mice [1]) | Duration (SJL/J mice [1]) | CD4/CD8 Ratio (mean ± SEM) (lymph node cells (LNC)) | Colocalisation with endosomes (endosomes) | Colocalisation with lysosomes (lysosomes) | Colocalisation with endoplasmic reticulum (ER) [5] | Colocalisation with MHC class I (MHC class I molecules) | further results
1 | H2N-HCLGKWLGHPDKF-CO2H (H-HCLGKWLGHPDKF-OH) [PLP139-151] | 11.0 ± 1.4 days | 4/4 | 3.0 ± 0.7 | 5.8 ± 1.8 | 2.18 ± 0.19 |  |  |  |  | Incidence (SJL/J mouse [2]; [6]): 4/4; Mean day of onset (SJL/J mouse [2]; [6]): 11.5 days; Mean severity (SJL/J mouse [2]; mean maximum severity of mice that developed EAE, 5 point scale, W144 alone): 4.3
2 | H2N-KTTICGKGLSATVT-CO2H (H-KTTICGKGLSATVT-OH) [PLP104-117] |  | 0/4 | 0 |  | 2.31 ± 0.07 |  |  |  |  | 
3 | H2N-NTWTTCQSIAAPSK-CO2H (H-NTWTTCQSIAAPSK-OH) [A188] |  |  |  |  |  |  |  |  |  | Protective effect on EAE (in words) (SJL/J mouse [3]; injected at a dose 5 times greater than the encephalitogenic peptide F188): protective; Mean EAE score after treatment (SJL/J mice [4]): intermediate between the control group and the S-palm-A188-treated group
4 | H2N-NTWTTCQSIAFPSK-CO2H (H-NTWTTCQSIAFPSK-OH) [PLP178-191] | 13.0 ± 1.5 days | 5/5 | 2.7 ± 0.9 | 5.8 ± 0.4 |  |  |  |  |  | Mean severity (SJL/J mouse [3]; 5 point scale, F188 alone): 2.8 ± 0.3; Incidence (SJL/J mouse [3]; EAE, 100 μg F188 alone in CFA s.c.): 8/8; Mean day of onset (SJL/J mouse [3]; EAE, F188 alone): 11.3 ± 0.5 days
5 | PLP139-151 Cys140-Palm Lys150-Biot (S-palm) (HCLGKWLGHPDKF) [S-palm peptide] |  |  |  |  |  | colocalised rapidly and strongly with endosomes | colocalised strongly with lysosomes | but not S-palm peptide colocalised strongly | only a small percentage | Colocalisation with MHC class II (MHC class II molecules): colocalised strongly with MHC class II
6 | PLP139-151 His139-Palm Lys150-Biot (N-palm) (HCLGKWLGHPDKF) [N-palm peptide] |  |  |  |  |  | did not colocalise strongly with endosomes in most cells | did not colocalise strongly with lysosomes in most cells | colocalised strongly with endoplasmic reticulum (ER) | colocalised strongly with MHC class I | 
